In this assay the target is Integrin alpha-IIb/beta-3 (Homo sapiens, UniProt P05106+P08514). Kind of assay: Inhibition of fibrinogen binding to activated human platelets. The assay is classed as functional.

Where a SMILES comes first, the peptide text is derived from it.

Broadly, the IC50 is the concentration that inhibits the measured activity by half.

Chain of Integrin alpha-IIb/beta-3 (P05106 27-788 limits assumed): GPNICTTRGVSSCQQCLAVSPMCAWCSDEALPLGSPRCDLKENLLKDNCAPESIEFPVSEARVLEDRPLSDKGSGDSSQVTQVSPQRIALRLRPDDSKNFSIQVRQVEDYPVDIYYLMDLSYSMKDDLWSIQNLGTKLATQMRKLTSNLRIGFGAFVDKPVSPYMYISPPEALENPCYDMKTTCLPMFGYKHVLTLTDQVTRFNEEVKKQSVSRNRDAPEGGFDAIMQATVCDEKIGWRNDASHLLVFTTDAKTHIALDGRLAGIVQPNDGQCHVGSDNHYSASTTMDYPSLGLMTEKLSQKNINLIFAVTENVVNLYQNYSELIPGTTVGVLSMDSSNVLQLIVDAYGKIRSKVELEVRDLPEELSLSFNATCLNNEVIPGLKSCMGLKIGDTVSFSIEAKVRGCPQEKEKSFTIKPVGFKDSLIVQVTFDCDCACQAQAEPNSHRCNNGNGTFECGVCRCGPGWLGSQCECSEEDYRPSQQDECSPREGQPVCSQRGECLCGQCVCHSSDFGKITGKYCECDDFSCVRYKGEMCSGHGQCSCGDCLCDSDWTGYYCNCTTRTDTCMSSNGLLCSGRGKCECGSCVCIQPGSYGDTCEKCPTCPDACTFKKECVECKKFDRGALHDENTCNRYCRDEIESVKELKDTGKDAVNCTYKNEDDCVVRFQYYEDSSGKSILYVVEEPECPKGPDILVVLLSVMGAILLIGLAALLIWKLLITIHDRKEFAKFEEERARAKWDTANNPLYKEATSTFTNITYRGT
Chain of Integrin alpha-IIb/beta-3 (P08514 32-887 limits assumed): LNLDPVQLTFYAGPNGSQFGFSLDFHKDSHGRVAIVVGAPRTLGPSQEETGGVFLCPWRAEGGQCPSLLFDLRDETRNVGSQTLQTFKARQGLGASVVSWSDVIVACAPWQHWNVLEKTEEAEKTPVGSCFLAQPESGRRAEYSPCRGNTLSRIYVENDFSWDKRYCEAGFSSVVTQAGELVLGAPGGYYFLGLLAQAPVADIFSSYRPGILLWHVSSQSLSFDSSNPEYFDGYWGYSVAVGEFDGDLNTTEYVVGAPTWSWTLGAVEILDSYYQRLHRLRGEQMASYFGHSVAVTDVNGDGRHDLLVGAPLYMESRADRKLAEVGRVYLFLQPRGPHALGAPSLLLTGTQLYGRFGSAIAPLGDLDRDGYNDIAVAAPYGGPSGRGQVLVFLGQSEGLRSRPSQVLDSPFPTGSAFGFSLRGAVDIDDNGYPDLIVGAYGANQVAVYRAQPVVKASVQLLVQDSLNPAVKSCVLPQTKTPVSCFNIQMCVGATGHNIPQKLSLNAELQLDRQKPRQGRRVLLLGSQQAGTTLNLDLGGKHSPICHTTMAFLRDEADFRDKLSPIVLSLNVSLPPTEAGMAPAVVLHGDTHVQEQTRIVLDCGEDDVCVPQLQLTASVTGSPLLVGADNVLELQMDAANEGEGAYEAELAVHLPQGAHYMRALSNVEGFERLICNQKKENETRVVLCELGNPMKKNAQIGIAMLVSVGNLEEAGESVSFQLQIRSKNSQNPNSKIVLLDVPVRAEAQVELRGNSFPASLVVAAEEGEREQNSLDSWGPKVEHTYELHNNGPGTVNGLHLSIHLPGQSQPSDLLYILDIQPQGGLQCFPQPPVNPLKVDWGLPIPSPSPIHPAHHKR
Chain of Integrin alpha-IIb/beta-3 (P08514 891-1039 limits assumed): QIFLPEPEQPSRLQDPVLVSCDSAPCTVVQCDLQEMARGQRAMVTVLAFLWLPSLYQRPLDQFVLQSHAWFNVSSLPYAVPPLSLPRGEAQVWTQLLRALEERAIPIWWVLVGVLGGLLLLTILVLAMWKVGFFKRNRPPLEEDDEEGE

As to `CC(C)[C@H](NC(=O)[C@H](CC(=O)O)NC(=O)C[C@H]1CCCN1C(=O)/C=C/c1ccc(NC(=N)N)cc1)C(=O)O`, the concentration for half-maximal inhibition (IC50) came out at 26000 nM. With `CC(C)[C@H](NC(=O)[C@H](CC(=O)O)NC(=O)C[C@@H]1CCCCN1C(=O)/C=C/c1ccc(NC(=N)N)cc1)C(=O)O` the figure was 200 nM. With `CC(C)[C@H](NC(=O)[C@H](CC(=O)O)NC(=O)CCN(C)C(=O)/C=C/c1ccc(NC(=N)N)cc1)C(=O)O` the figure was 200 nM.

With `CC(C)[C@H](NC(=O)[C@H](CC(=O)O)NC(=O)[C@H]1CCN(C(=O)/C=C/c2ccc(NC(=N)N)cc2)C1)C(=O)O`, the 50% inhibitory concentration (IC50) stood at 3000 nM.

On to `CC(C)[C@H](NC(=O)[C@H](CC(=O)O)NC(=O)[C@@H]1CCCN(C(=O)/C=C/c2ccc(NC(=N)N)cc2)C1)C(=O)O`, for which the IC50 turned out to be 70 nM. In turn, `CC(C)[C@H](NC(=O)[C@H](CC(=O)O)NC(=O)C[C@@H]1CCCN1C(=O)/C=C/c1ccc(NC(=N)N)cc1)C(=O)O` had a half-inhibitory concentration (IC50) of 1500 nM. `CC(C)[C@H](NC(=O)[C@H](CC(=O)O)NC(=O)CCCNC(=O)/C=C/c1ccc(NC(=N)N)cc1)C(=O)O` came in with an IC50 of 70000 nM. As to `CC(C)[C@H](NC(=O)[C@H](CC(=O)O)NC(=O)CCNC(=O)/C=C/c1ccc(NC(=N)N)cc1)C(=O)O`, the 50% inhibitory concentration (IC50) was determined as 240 nM. With `CC(C)[C@H](NC(=O)[C@H](CC(=O)O)NC(=O)C[C@H]1CCN1C(=O)/C=C/c1ccc(NC(=N)N)cc1)C(=O)O` the figure was 110 nM; with `CC(C)[C@H](NC(=O)[C@H](CC(=O)O)NC(=O)C[C@H]1CCCCN1C(=O)/C=C/c1ccc(NC(=N)N)cc1)C(=O)O`, more than 20000 nM; with `CCN(CCC(=O)N[C@@H](CC(=O)O)C(=O)N[C@H](C(=O)O)C(C)C)C(=O)/C=C/c1ccc(NC(=N)N)cc1`, 220 nM. With `CC(C)[C@H](NC(=O)[C@H](CC(=O)O)NC(=O)[C@H]1CCCN(C(=O)/C=C/c2ccc(NC(=N)N)cc2)C1)C(=O)O` the figure was 120 nM; with `CC(C)[C@H](NC(=O)[C@H](CC(=O)O)NC(=O)C1CN(C(=O)/C=C/c2ccc(NC(=N)N)cc2)C1)C(=O)O`, more than 20000 nM. Consider `CC(C)[C@H](NC(=O)[C@H](CC(=O)O)NC(=O)CNC(=O)/C=C/c1ccc(NC(=N)N)cc1)C(=O)O`, for which the concentration for half-maximal inhibition (IC50) was found to be 5000 nM.

Compound `CC(C)[C@H](NC(=O)[C@H](CC(=O)O)NC(=O)[C@@H]1CCN(C(=O)/C=C/c2ccc(NC(=N)N)cc2)C1)C(=O)O` returned an IC50 of 3 nM. As for `CC(C)[C@H](NC(=O)[C@H](CC(=O)O)NC(=O)CNC(=O)[C@@H](N)CCCN=C(N)N)C(=O)O` (H-RGDV-OH), the figure is 6000 nM.
